# Laboratory results as given in patent US20050287085A1, “Composition for improving the physico-chemical properties of apatite-based materials, uses thereof and method using same” (DENTSPLY INTERNATIONAL INC., priority 2002, published 2005).
# Assay: Substitution in treated hydroxyapatite, mass spectrometry
# Text: The analysis of the samples of treated hydroxyapatite is continued by mass spectrometry. The percentage of calcium substituted by titanium and the percentage of hydroxyl groups substituted by fluorine are compared with those obtained after bringing the hydroxyapatite into contact with the sodium fluoride solution.
structure (smiles),measurement,value
"[F-].[Na+] [NaF, Sodium fluoride]",Substitution of Ca by Ti,0.3%
same,Substitution of OH by F,52.0%
